This assay has as its target T1, CDK2/cyclin A1 (Homo sapiens, UniProt P24941).
T1 construct: purchased Thermo Fisher Scientific (Life Technologies) SelectScreen
Description: SelectScreen LanthaScreen. Format: binding. As to conditions: 1 µM. The gist of the method: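 NU5455 was profiled across the SelectScreen Broad panel of kinase activity and binding assays. Z'LYTE reactions such as CSF1R ran at apparent Km ATP, while the Adapta CAMK1 assay used ATP listed as 10. Values are given as percent.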
A general note: In TR-FRET formats the signal depends on donor and acceptor labels being close together.

Take `CN(C(=O)CN1CCOCC1)c1ccc2sc3c(-c4cccc5c(=O)cc(N6CC7CCC(C6)O7)oc45)cccc3c2c1` [NU5455]: the “% displacement” value was -1.6%.

Values taken from paper PMC6934184, “Selective DNA-PKcs inhibition extends the therapeutic index of localized radiotherapy and chemotherapy” (The Journal of Clinical Investigation, 2019).
